# From publication PMC8909127 (Frontiers in Microbiology, 2022)
# “Also recorded” adds a separate entry of the source. Read-outs that look alike come from different tables or passages of the source. No end group written: not given here.
# T1: LNX2 PDZ2 (Homo sapiens, UniProt Q8N448)
# T1 construct: LNX2-2 (PDZ2; residues 334–426); His tag (N, cleaved yes); made in house; host or cells: E. coli BL21 Star (DE3)
# T1 sequence (Q8N448 334-426): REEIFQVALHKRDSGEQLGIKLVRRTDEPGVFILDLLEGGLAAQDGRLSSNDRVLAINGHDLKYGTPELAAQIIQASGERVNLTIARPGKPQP
# T2: ZO1 PDZ2 (Homo sapiens, UniProt Q07157)
# T2 construct: ZO-1-2 (PDZ2; residues 184–264); His tag (N); made in house; host or cells: E. coli BL21 Star (DE3)
# T2 sequence (Q07157 184-264): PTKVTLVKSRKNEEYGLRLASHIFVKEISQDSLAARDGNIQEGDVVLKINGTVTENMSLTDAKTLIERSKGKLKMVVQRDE
# T3: MPP5 PDZ (Homo sapiens, UniProt Q8N3R9)
# T3 construct: MPP5 (residues 238–336); GST (N, cleaved yes); made in house; host or cells: E. coli BL21 Star (DE3)
# T3 sequence (Q8N3R9 238-336): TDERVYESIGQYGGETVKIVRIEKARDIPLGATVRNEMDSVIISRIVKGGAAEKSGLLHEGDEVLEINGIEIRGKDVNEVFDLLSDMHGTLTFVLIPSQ
# T4: MLLT4 PDZ (Homo sapiens, UniProt P55196)
# T4 construct: MLLT4; P55196; 1002-1095; His-MBP (N, cleaved yes); made in house; host or cells: E. coli BL21 Star (DE3)
# T4 sequence (P55196 1002-1095): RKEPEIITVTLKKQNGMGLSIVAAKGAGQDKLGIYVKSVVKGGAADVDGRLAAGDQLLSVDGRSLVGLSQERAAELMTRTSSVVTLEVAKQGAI
# T5: ZO-1 PDZ2 (human, UniProt Q07157 184-264)
# T5 construct: second PDZ domain of human ZO-1 (TJP1), residues 184-264, numbering of the full-length human protein; […]; Labelled on amines with RED-NHS dye for MST; also called TJP1 PDZ2; ZO-1-2
# T5 sequence (looked up): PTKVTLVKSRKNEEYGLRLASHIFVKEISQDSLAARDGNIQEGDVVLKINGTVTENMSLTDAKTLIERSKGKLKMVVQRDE
# T6: MPP5 PDZ (human, UniProt Q8N3R9 238-336)
# T6 construct: PDZ domain of human MPP5 (PALS1), residues 238-336, numbering of the full-length human protein; […]; Labelled on amines with RED-NHS dye for MST; also called PALS1 PDZ; not shown: GST, N-terminal, cleaved
# T6 sequence (looked up): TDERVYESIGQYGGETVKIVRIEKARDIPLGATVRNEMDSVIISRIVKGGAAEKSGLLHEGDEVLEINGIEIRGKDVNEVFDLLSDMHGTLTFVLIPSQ
# T7: LNX2 PDZ2 (human, UniProt Q8N448 334-426)
# T7 construct: second PDZ domain of human LNX2, residues 334-426, numbering of the full-length human protein; […]; Labelled on amines with RED-NHS dye for MST; also called LNX2-2; not shown: His tag, N-terminal, cleaved
# T7 sequence (looked up): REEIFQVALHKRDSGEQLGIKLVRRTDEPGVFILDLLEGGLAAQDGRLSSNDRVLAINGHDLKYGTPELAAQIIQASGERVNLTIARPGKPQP
# T8: MLLT4 PDZ (human, UniProt P55196 1002-1095)
# T8 construct: PDZ domain of human MLLT4 (Afadin); the residues named in the structure (1014-1022, 1071) fit 1002-1095; also called Afadin PDZ; not shown: His tag, N-terminal, cleaved; MBP, N-terminal, cleaved
# T8 sequence (looked up): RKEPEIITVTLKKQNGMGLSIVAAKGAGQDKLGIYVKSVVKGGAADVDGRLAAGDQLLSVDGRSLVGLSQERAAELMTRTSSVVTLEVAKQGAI
# Assays:
# [1] = molecular target: T9, PARD3 PDZ3 (Homo sapiens, UniProt Q8TEW0); test: Microscale thermophoresis, E PBM peptide vs PARD3 PDZ3; format: binding; conditions: MST
# T9 construct: PARDD3-3 (PDZ3; residues 582–685); His tag (N, cleaved yes); made in house; host or cells: E. coli BL21 Star (DE3)
# T9 sequence (Q8TEW0 582-685): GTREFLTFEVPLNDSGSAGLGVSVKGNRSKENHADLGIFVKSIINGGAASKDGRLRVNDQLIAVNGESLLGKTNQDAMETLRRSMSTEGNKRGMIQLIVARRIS
# [2] = molecular target: T1, LNX2 PDZ2; test: Microscale thermophoresis, E PBM peptide vs LNX2 PDZ2; format: binding
# [3] = molecular target: T2, ZO1 PDZ2; test: Microscale thermophoresis, E PBM peptide vs ZO1 PDZ2; format: binding
# [4] = molecular target: T3, MPP5 PDZ; test: Microscale thermophoresis, E PBM peptide vs MPP5 PDZ; format: binding
# [5] = molecular target: T4, MLLT4 PDZ; test: Microscale thermophoresis, E PBM peptide vs MLLT4 PDZ; format: binding; conditions: MST
# [6] = molecular target: T5, ZO-1 PDZ2; test: MST; […]; PBS tween 20 0.05%; room temperature; […]; duplicate; conditions: both partners purified
# [7] = molecular target: T6, MPP5 PDZ; test: as above; conditions: both partners purified
# [8] = molecular target: T7, LNX2 PDZ2; test: as above; conditions: both partners purified
# [9] = molecular target: T10, PARD3 PDZ3 (human, UniProt Q8TEW0 582-685); test: as above; conditions: both partners purified
# T10 construct: third PDZ domain of human PARD3, residues 582-685, numbering of the full-length human protein; […]; Labelled on amines with RED-NHS dye for MST; also called PARDD3-3; not shown: His tag, N-terminal, cleaved
# T10 sequence (Q8TEW0 582-685): as above
# [10] = molecular target: T8, MLLT4 PDZ; test: as above; conditions: both partners purified
# [11] = Monolith NT.115, PDZ labeled RED-NHS, acetylated 12-mer peptide serially diluted, PBS tween 20 0.05%, room temperature, 80% LED, 20% MST power, MST time 30 s, averaged, ± standard deviation, two independent experiments
# [12] = either no interaction, or affinity outside the tested concentration range, read-out: Kd, outside the tested concentration range
Molecule,"Kd [1, 11]","Kd [1, 12]",Change of Kd compared with SARS-CoV-2 WT [2],Effect of P71L on affinity vs WT [3],Effect of P71L on affinity vs WT [4],"Kd [5, 11]","Kd [5, 12]",Kd [6],Kd [7],Kd [8],Kd [9],Kd [10]
Ac-NLNSSRVLDLLV [SARS-CoV-2 P71L],not detectable in the tested concentration range; also recorded: No interaction detected,> 1000 µM,almost six times lower,considerably reduces,does not significantly impact the affinity,not detectable in the tested concentration range; also recorded: No interaction detected,> 1000 µM,,,,,
NLNSSRVLDLLV (also called P71L PBM peptide; SARS-CoV-2 P71L) [C-terminal SARS-CoV-2-E PBM P71L peptide of the beta variant],,,,,,,,133 µM,22 µM,47 µM,> 1000 µM,> 1000 µM
